Source: PubChem BioAssay (NCI)
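These data come from cells grown in 96-well plates and exposed to compound for 48 hours at five concentrations. GI50 is the concentration that inhibits growth by half. Definition used: TGI = concentration required for complete inhibition of growth.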

Legend:
Assay in all cases: DTP human tumour cell line panel, 48 h
SW-620 colon = test system: SW-620 colon
U251 CNS = test system: U251 CNS
MDA-MB-231 breast = test system: MDA-MB-231 breast
RXF 393 renal = test system: RXF 393 renal
KM12 colon = test system: KM12 colon
MOLT-4 leukemia = test system: MOLT-4 leukemia
SF-295 CNS = test system: SF-295 CNS
OVCAR-5 ovarian = test system: OVCAR-5 ovarian
HOP-62 NSCLC = test system: HOP-62 NSCLC
LOX IMVI melanoma = test system: LOX IMVI melanoma
OVCAR-3 ovarian = test system: OVCAR-3 ovarian
NCI-H522 lung = test system: NCI-H522 lung
NCI-H460 lung = test system: NCI-H460 lung
BT-549 breast = test system: BT-549 breast
786-0 renal = test system: 786-0 renal
A498 renal = test system: A498 renal
UACC-62 melanoma = test system: UACC-62 melanoma
SNB-75 CNS = test system: SNB-75 CNS
HCT-116 colon = test system: HCT-116 colon
TK-10 renal = test system: TK-10 renal
RPMI-8226 leukemia = test system: RPMI-8226 leukemia
CAKI-1 renal = test system: CAKI-1 renal
K-562 leukemia = test system: K-562 leukemia
UACC-257 melanoma = test system: UACC-257 melanoma
OVCAR-8 ovarian = test system: OVCAR-8 ovarian
MDA-MB-435 = test system: MDA-MB-435
HCC-2998 colon = test system: HCC-2998 colon
SR leukemia = test system: SR leukemia
NCI-H226 lung = test system: NCI-H226 lung
SK-MEL-2 melanoma = test system: SK-MEL-2 melanoma
UO-31 renal = test system: UO-31 renal
A549 NSCLC = test system: A549 NSCLC
MCF7 breast = test system: MCF7 breast
OVCAR-4 ovarian = test system: OVCAR-4 ovarian
HCT-15 colon = test system: HCT-15 colon
SK-OV-3 ovarian = test system: SK-OV-3 ovarian
ACHN renal = test system: ACHN renal
SK-MEL-28 melanoma = test system: SK-MEL-28 melanoma
SN12C renal = test system: SN12C renal
HOP-92 NSCLC = test system: HOP-92 NSCLC
HT29 colon = test system: HT29 colon
CCRF-CEM leukemia = test system: CCRF-CEM leukemia
EKVX NSCLC = test system: EKVX NSCLC
IGROV1 ovarian = test system: IGROV1 ovarian
M14 melanoma = test system: M14 melanoma
NCI-H23 lung = test system: NCI-H23 lung
SK-MEL-5 melanoma = test system: SK-MEL-5 melanoma
HL-60(TB) leukemia = test system: HL-60(TB) leukemia
SF-539 CNS = test system: SF-539 CNS
SF-268 CNS = test system: SF-268 CNS
SNB-19 CNS = test system: SNB-19 CNS
COLO 205 colon = test system: COLO 205 colon
MALME-3M melanoma = test system: MALME-3M melanoma
DU-145 prostate = test system: DU-145 prostate
NCI/ADR-RES ovarian = test system: NCI/ADR-RES ovarian
PC-3 prostate = test system: PC-3 prostate
T-47D breast = test system: T-47D breast

Cn1c(-c2c(N)n(CCCN3CCOCC3)c3nc(C#N)c(C#N)nc23)nc2ccccc21
GI50 (SW-620 colon): 1.74 µM
TGI (SW-620 colon): > 45 µM
GI50 (U251 CNS): 9.7 µM
TGI (U251 CNS): > 63.8 µM
GI50 (MDA-MB-231 breast): 7.87 µM
TGI (MDA-MB-231 breast): > 53.1 µM
GI50 (RXF 393 renal): 16.4 µM
TGI (RXF 393 renal): 45 µM
GI50 (KM12 colon): 12.4 µM
TGI (KM12 colon): 31.4 µM
GI50 (MOLT-4 leukemia): 6.73 µM
TGI (MOLT-4 leukemia): > 67.6 µM
GI50 (SF-295 CNS): 19.6 µM
TGI (SF-295 CNS): > 58.1 µM
GI50 (OVCAR-5 ovarian): > 77.7 µM
TGI (OVCAR-5 ovarian): > 100 µM
GI50 (HOP-62 NSCLC): 20.6 µM
TGI (HOP-62 NSCLC): 77.6 µM
GI50 (LOX IMVI melanoma): 11.3 µM
TGI (LOX IMVI melanoma): > 52.5 µM
GI50 (OVCAR-3 ovarian): 1.8 µM
TGI (OVCAR-3 ovarian): 13.4 µM
GI50 (NCI-H522 lung): 26.8 µM
TGI (NCI-H522 lung): > 100 µM
GI50 (NCI-H460 lung): > 42.5 µM
TGI (NCI-H460 lung): > 64.3 µM
GI50 (BT-549 breast): 16.1 µM
TGI (BT-549 breast): > 64.5 µM
GI50 (786-0 renal): 24.7 µM
TGI (786-0 renal): > 69 µM
GI50 (A498 renal): 39.4 µM
TGI (A498 renal): 92.5 µM
GI50 (UACC-62 melanoma): > 34.5 µM
TGI (UACC-62 melanoma): > 100 µM
GI50 (SNB-75 CNS): 4.34 µM
TGI (SNB-75 CNS): 25 µM
GI50 (HCT-116 colon): 4.03 µM
TGI (HCT-116 colon): > 33.4 µM
GI50 (TK-10 renal): 32.7 µM
TGI (TK-10 renal): 97.3 µM
GI50 (RPMI-8226 leukemia): 0.909 µM
TGI (RPMI-8226 leukemia): > 52.7 µM
GI50 (CAKI-1 renal): 7.52 µM
TGI (CAKI-1 renal): > 49.6 µM
TGI (K-562 leukemia): > 74.7 µM
GI50 (UACC-257 melanoma): 25.7 µM
TGI (UACC-257 melanoma): > 100 µM
GI50 (OVCAR-8 ovarian): 4.99 µM
TGI (OVCAR-8 ovarian): > 100 µM
GI50 (MDA-MB-435): > 100 µM
TGI (MDA-MB-435): > 100 µM
GI50 (HCC-2998 colon): 20.1 µM
TGI (HCC-2998 colon): 40 µM
GI50 (SR leukemia): 2.66 µM
TGI (SR leukemia): > 26.6 µM
GI50 (NCI-H226 lung): 27.8 µM
TGI (NCI-H226 lung): > 52.9 µM
GI50 (SK-MEL-2 melanoma): 45.3 µM
TGI (SK-MEL-2 melanoma): > 100 µM
GI50 (UO-31 renal): 6.36 µM
TGI (UO-31 renal): 55.6 µM
GI50 (A549 NSCLC): 22.5 µM
TGI (A549 NSCLC): 46.3 µM
GI50 (MCF7 breast): 1.48 µM
TGI (MCF7 breast): > 43.8 µM
GI50 (OVCAR-4 ovarian): 17.9 µM
TGI (OVCAR-4 ovarian): > 100 µM
TGI (HCT-15 colon): > 53.4 µM
GI50 (SK-OV-3 ovarian): 51.7 µM
TGI (SK-OV-3 ovarian): > 100 µM
GI50 (ACHN renal): 41.7 µM
TGI (ACHN renal): > 100 µM
GI50 (SK-MEL-28 melanoma): 3.03 µM
TGI (SK-MEL-28 melanoma): 11.8 µM
GI50 (SN12C renal): 8.85 µM
TGI (SN12C renal): > 80.2 µM
GI50 (HOP-92 NSCLC): 2.73 µM
TGI (HOP-92 NSCLC): 49.8 µM
TGI (HT29 colon): > 72.4 µM
GI50 (CCRF-CEM leukemia): 2.69 µM
TGI (CCRF-CEM leukemia): > 28.9 µM
GI50 (EKVX NSCLC): > 57 µM
TGI (EKVX NSCLC): > 100 µM
GI50 (IGROV1 ovarian): > 100 µM
TGI (IGROV1 ovarian): > 100 µM
GI50 (M14 melanoma): > 100 µM
TGI (M14 melanoma): > 100 µM
GI50 (NCI-H23 lung): 27 µM
TGI (NCI-H23 lung): > 81.9 µM
TGI (SK-MEL-5 melanoma): > 44.9 µM
GI50 (HL-60(TB) leukemia): 0.704 µM
TGI (HL-60(TB) leukemia): 2.08 µM
GI50 (SF-539 CNS): 1.85 µM
TGI (SF-539 CNS): 7 µM
GI50 (SF-268 CNS): 7.16 µM
TGI (SF-268 CNS): 62.2 µM
GI50 (SNB-19 CNS): 23.8 µM
TGI (SNB-19 CNS): > 100 µM
GI50 (COLO 205 colon): > 42.8 µM
TGI (COLO 205 colon): > 61.7 µM
GI50 (MALME-3M melanoma): 31.9 µM
TGI (MALME-3M melanoma): > 83.7 µM
GI50 (DU-145 prostate): 3.68 µM
TGI (DU-145 prostate): 29.2 µM
GI50 (NCI/ADR-RES ovarian): > 28.3 µM
TGI (NCI/ADR-RES ovarian): > 100 µM
GI50 (PC-3 prostate): 3.82 µM
TGI (PC-3 prostate): > 100 µM
GI50 (T-47D breast): 26.2 µM
TGI (T-47D breast): > 69.5 µM
